A word on the melting point: it is the temperature of the solid-liquid transition.

The compound `O=C(N[C@H](Cc1ccc(C(F)(F)F)cc1)[C@@H](O)c1ccc(F)cc1)c1cccc(Cl)c1Cl` (racemic) [Example 50, 2,3-dichloro-N-((1RS,2SR)-2-(4-fluorophenyl)-2-hydroxy-1-((4-(trifluoromethyl)phenyl)methyl)ethyl)benzamide] showed a melting point of 187 to 188 °C.

`CC(C)(C)OC(=O)N[C@H](Cc1cccc(OC(F)(F)C(F)F)c1)[C@@H](O)c1ccc(Cl)nc1` (racemic) [Example 328, tert-butyl N-[(1RS,2SR)-2-(6-chloropyridin-3-yl)-2-hydroxy-1-[3-(1,1,2,2-tetrafluoroethoxy)benzyl]ethyl]carbamate] came in with a melting point of 119 to 121 °C.

Consider `O=C(N[C@H](Cc1cccc(OC(F)(F)C(F)F)c1)[C@@H](O)c1ccc(Oc2cccnc2)cc1)c1cccc2c1C=CCCC2` (racemic) [Example 261, N-{(1RS,2SR)-2-hydroxy-2-[4-(pyridin-3-yloxy)phenyl]-1-[3-(1,1,2,2-tetrafluoroethoxy)benzyl]ethyl}-6,7-dihydro-5H-benzo[a][7]annulene-1-carboxamide], for which the melting point lay within 133 to 134 °C.

Turning to `CC(C)(C)OC(=O)NCC(=O)O[C@H](c1ccc(F)cc1)[C@H](Cc1cccc(OC(F)(F)C(F)F)c1)NC(=O)c1cccc2c1C=CCCC2` (racemic) [Example 386, N-(tert-butoxycarbonyl)glycine (1RS,2SR)-2-[(6,7-dihydro-5H-benzo[a]cyclohepten-1-ylcarbonyl)amino]-1-(4-fluorophenyl)-3-[3-(1,1,2,2-tetrafluoroethoxy)phenyl]propyl ester], the melting point is 151 to 152 °C.

In turn, `O=C1CC(C(=O)N[C@H](Cc2ccc(C(F)(F)F)cc2)[C@@H](O)c2ccc(F)cc2)c2ccccc21` (mixture of isomers) [Example 53, N-((1RS,2SR)-2-(4-fluorophenyl)-2-hydroxy-1-((4-(trifluoromethyl)phenyl)methyl)ethyl)-3-oxo-2,3-dihydro-1H-indene-1-carboxamide] yielded a melting point of 237 to 238 °C.

`O=C(CCc1ccccc1)N[C@H](Cc1ccc(C(F)(F)F)cc1)[C@@H](O)c1ccc(Oc2ccccc2)cc1` (racemic) [Example 211, N-((1RS,2SR)-2-hydroxy-2-(4-phenoxyphenyl)-1-((4-(trifluoromethyl)phenyl)methyl)ethyl)-3-phenylpropanamide]: the melting point was in the range of 133 to 134 °C.

Compound `O=C(N[C@H](Cc1ccc(C(F)(F)F)cc1)[C@@H](O)c1ccc(F)cc1)c1c2ccccc2cc2ccccc12` (racemic) [Example 84, N-((1RS,2SR)-2-(4-fluorophenyl)-2-hydroxy-1-((4-(trifluoromethyl)phenyl)methyl)ethyl)-9-anthracenecarboxamide] registered a melting point of 251 to 252 °C.

The compound `O=C(NC(Cc1ccc(C(F)(F)F)cc1)C(O)c1ccc(F)cc1)c1cccc2ccccc12` (racemic) [Example 1, N-[2-(4-fluorophenyl)-2-hydroxy-1-[[4-(trifluoromethyl)phenyl]methyl]ethyl]-1-naphthalenecarboxamide] came in with a melting point of 159 to 181 °C.

`O=C(N[C@H](Cc1cccc(OC(F)(F)C(F)F)c1)[C@@H](O)c1ccc(O)cc1)c1cccc2c1C=CCCC2` (racemic) [Example 241, N-{(1RS,2SR)-2-hydroxy-2-(4-hydroxyphenyl)-1-[3-(1,1,2,2-tetrafluoroethoxy)benzyl]ethyl}-6,7-dihydro-5H-benzo[a][7]annulene-1-carboxamide]: the melting point lay in the range of 167 to 168 °C.

`Cc1cc(C[C@@H](NC(=O)c2ccc(F)c3ccccc23)[C@@H](O)c2ccc(F)cc2)cc(OC(F)(F)C(F)F)c1` (racemic) [Example 230, N-((1RS,2SR)-2-(4-fluorophenyl)-2-hydroxy-1-((5-methyl-3-(1,1,2,2-tetrafluoroethoxy)phenyl)methyl)ethyl)-4-fluoro-1-naphthalenecarboxamide] yielded a melting point of 189 to 190 °C.

On to `O=C(N[C@H](Cc1cccc(OC(F)(F)C(F)F)c1)[C@@H](O)c1ccc(F)nc1)c1ccc(F)c2ccccc12` (racemic) [Example 224, N-((1RS,2SR)-2-(6-fluoropyridin-3-yl)-2-hydroxy-1-((3-(1,1,2,2-tetrafluoroethoxy)phenyl)methyl)ethyl)-4-fluoro-1-naphthalenecarboxamide], for which the melting point was in the range of 148 to 149 °C.

On to `O=C(N[C@H](Cc1cccc(OC(F)(F)C(F)F)c1)[C@@H](O)c1ccnc(F)c1)c1ccc(F)c2ccccc12` (racemic) [Example 265, 4-fluoro-N-{(1RS,2SR)-2-(2-fluoropyridin-4-yl)-2-hydroxy-1-[3-(1,1,2,2-tetrafluoroethoxy)benzyl]ethyl}-1-naphthamide], for which the melting point lay within 170 to 171 °C.

`CC(C)(C)Oc1ccc(C[C@@H](NC(=O)c2ccc(F)c3ccccc23)[C@@H](O)c2cccc(Cl)c2)cc1` (racemic) [Example 277, N-[(1RS,2SR)-1-(4-tert-butoxybenzyl)-2-(3-chlorophenyl)-2-hydroxyethyl]-4-fluoro-1-naphthamide] gave a melting point of 161 to 162 °C.

On to `O=C(N[C@H](Cc1ccc(C(F)(F)F)cc1)[C@@H](O)c1ccccc1F)c1ccc(F)c2ccccc12` (racemic) [Example 179, 4-fluoro-N-((1RS,2SR)-2-(2-fluorophenyl)-2-hydroxy-1-((4-(trifluoromethyl)phenyl)methyl)ethyl)-1-naphthalenecarboxamide], for which the melting point is 190 to 191 °C.

Compound `O=C(N[C@H](Cc1cccc(OC(F)(F)C(F)F)c1)[C@@H](O)c1ccc(Cl)nc1)c1ccc(F)c2ccccc12` (racemic) [Example 331, N-[(1RS,2SR)-2-(6-chloropyridin-3-yl)-2-hydroxy-1-[3-(1,1,2,2-tetrafluoroethoxy)benzyl]ethyl]-4-fluoronaphthalene-1-carboxamide] yielded a melting point of 185 to 187 °C.

`O=C(N[C@H](Cc1cccc(OC(F)(F)C(F)F)n1)[C@@H](O)c1ccc(F)cc1)c1cccc2c1C=CCCC2` (racemic) [Example 239, N-((1RS,2SR)-2-(4-fluorophenyl)-2-hydroxy-1-{[6-(1,1,2,2-tetrafluoroethoxy)pyridin-2-yl]methyl}ethyl)-6,7-dihydro-5H-benzo[a][7]annulene-1-carboxamide] registered a melting point of 134 to 135 °C.

In the case of `O=C(N[C@H](Cc1cnc(C(F)(F)F)s1)[C@@H](O)c1ccc(F)cc1)c1ccc(F)c2ccccc12` (racemic) [Example 169, 4-fluoro-N-[(1RS,2SR)-2-(4-fluorophenyl)-2-hydroxy-1-[[2-(trifluoromethyl)-1,3-thiazol-5-yl]methyl]ethyl]naphthalene-1-carboxamide], the melting point lay within 197 to 198 °C.

Regarding `O=C(N[C@H](Cc1cccc(C(=O)C(F)(F)C(F)F)c1)[C@@H](O)c1ccc(F)cc1)c1ccc(F)c2ccccc12` (racemic) [Example 348, 4-fluoro-N-[(1RS,2SR)-2-(4-fluorophenyl)-2-hydroxy-1-[3-(2,2,3,3-tetrafluoropropionyl)benzyl]ethyl]naphthalene-1-carboxamide], the melting point is 160 to 162 °C.

`CC(F)(F)c1cccc(C[C@@H](NC(=O)c2cccc3c2C=CCCC3)[C@@H](O)c2ccc(F)cc2)c1` (racemic) [Example 360, N-[(1RS,2SR)-1-[3-(1,1-difluoroethyl)benzyl]-2-(4-fluorophenyl)-2-hydroxyethyl]-6,7-dihydro-5H-benzo[a]cycloheptene-1-carboxamide] gave a melting point of 170 to 171 °C.

`O=C(N[C@H](Cc1cccc(OC(F)(F)C(F)F)c1)[C@@H](O)c1ccc(Oc2ccccc2)cn1)c1cccc2c1C=CCCC2` (racemic) [Example 255, N-{(1RS,2RS)-2-hydroxy-2-(5-phenoxypyridin-2-yl)-1-[3-(1,1,2,2-tetrafluoroethoxy)benzyl]ethyl}-6,7-dihydro-5H-benzo[a][7]annulene-1-carboxamide] displayed a melting point of 147 to 148 °C.

Compound `Cc1ccc(C[C@@H](NC(=O)c2cccc3c2C=CCCC3)[C@@H](O)c2ccc(F)cc2)cc1OC(F)(F)C(F)F` (racemic) [Example 234, N-((1RS,2SR)-2-(4-fluorophenyl)-2-hydroxy-1-((4-methyl-3-((1,1,2,2-tetrafluoroethyl)oxy)phenyl)methyl)ethyl)-6,7-dihydro-5H-benzo[a]cycloheptene-1-carboxamide] returned a melting point of 168 to 169 °C.

The compound `CN(C(=O)c1cccc2ccccc12)[C@H](Cc1ccc(C(F)(F)F)cc1)[C@@H](O)c1ccc(F)cc1` (racemic) [Example 121, N-((1RS,2SR)-2-(4-fluorophenyl)-2-hydroxy-1-((4-(trifluoromethyl)phenyl)methyl)ethyl)-N-methyl-1-naphthalenecarboxamide] yielded a melting point of 196 to 197 °C.

`O=C(N[C@H](Cc1cccc(OC(F)(F)C(F)F)c1)[C@@H](O)c1ccc(-c2ccsc2)cc1)c1cccc2c1C=CCCC2` (racemic) [Example 292, N-[(1RS,2SR)-2-hydroxy-1-[3-(1,1,2,2-tetrafluoroethoxy)benzyl]-2-[4-(3-thienyl)phenyl]ethyl]-6,7-dihydro-5H-benzo[a]cycloheptene-1-carboxamide] yielded a melting point of 178 to 179 °C.

The compound `O=C(N[C@H](Cc1ccc(C(F)(F)F)cc1)[C@@H](O)c1ccc(F)cc1)c1ccc(C(F)(F)F)cc1` (racemic) [Example 81, N-((1RS,2SR)-2-(4-fluorophenyl)-2-hydroxy-1-((4-(trifluoromethyl)phenyl)methyl)ethyl)-4-(trifluoromethyl)benzamide] yielded a melting point of 228 to 229 °C.

Regarding `O=C(N[C@H](Cc1ccc(C(F)(F)F)cc1)[C@@H](O)c1cccc2ccccc12)c1cccc2ccccc12` (racemic) [Example 185, N-((1RS,2SR)-2-hydroxy-2-(1-naphthalenyl)-1-((4-(trifluoromethyl)phenyl)methyl)ethyl)-1-naphthalenecarboxamide], the melting point was 217 to 218 °C.

The compound `O=C(Cc1ccccc1)N[C@H](Cc1ccc(C(F)(F)F)cc1)[C@@H](O)c1ccc(F)cc1` (racemic) [Example 69, N-((1RS,2SR)-2-(4-fluorophenyl)-2-hydroxy-1-((4-(trifluoromethyl)phenyl)methyl)ethyl)-2-phenylacetamide] showed a melting point of 173 to 174 °C.

The values are drawn from patent US6982348B2, “Aminoethanol derivatives” (Takeda Pharmaceutical Company Limited, priority 2001, dated 2006).
